Where no end group is shown, it is not given here.
How the values were obtained:
PTH-2 receptor [1] = biological target: T1, PTH-2 receptor (Homo sapiens, UniProt P49190); experiment: Ligand-induced intracellular cAMP accumulation, COS-7 cells expressing human PTH-2 receptor; format: cell-based; conditions: for cAMP accumulation Maximum, PTH-2 receptor: highest level of cAMP attained, basal 5.4 ± 0.3 not subtracted, 1h at room temperature; for cAMP agonist activity in words, PTH-2 receptor: COS-7 cells
T1 construct: expressed in transfected cells; host or cells: COS-7 cells, transient transfection, vector pcDNAI/Amp
Protocol: (§1) The cDNAs encoding the human PTH/PTHrP receptor (Schipani, E. et al., Endocrinology 132:2157-2165 (1993)) and the human PTH-2 receptor (Usdin, T. et al., J. Biol. Chem. 270:15455-15458 (1995)) were carried on the expression vectors pcDNA-1 and pcDNAI/Amp (InVitrogen, San Diego, Calif.), respectively. COS-7 cells were cultured and transfected as described previously (Lee, C. et al., Mol. Endocrinol. 9:1269-1278 (1995)). Cells were transfected in 24-well plates using plasmid DNA (200 ng/well) purified by cesium chloride/ethidium bromide gradient centrifugation. Ligand binding and cAMP accumulation assays were performed three days after transfection, by which time the cell density reached 500,000±100,000 cells/well.
(§2) Transfected COS-7 cells were rinsed with […] of binding buffer. 200 μl of IBMX buffer (DMEM containing 2 mM IBMX, 1 mg/ml bovine serum albumin, 35 mM Hepes-NaOH, pH 7.4) and […] of binding buffer or binding buffer containing various amounts of a PTH or PTHrP analog were then added. The plates were incubated for 60 minutes at room temperature. The buffer was then withdrawn and the cells lysed by placing the plates on powdered dry ice and adding 0.5 ml of 50 mM HCl. The acid lysate was diluted 1/30 in dH2O, and an aliquot (5-50 μl) analyzed for cAMP content by radioimmunoassay. […] The cells were then incubated for 30 minutes at room temperature, and the resulting intracellular cAMP was measured by RIA. Data were analyzed using the AssayZap software (Elsevier Science Publishers BV, Cambridge, United Kingdom).

PTH/PTHrP receptor [2] = biological target: T2, PTH/PTHrP receptor (Homo sapiens, UniProt Q03431); experiment: Ligand-induced intracellular cAMP accumulation, COS-7 cells expressing human PTH/PTHrP receptor; format: cell-based; conditions: for cAMP agonist activity in words, PTH/PTHrP receptor: COS-7 cells; for cAMP accumulation Maximum, PTH/PTHrP receptor: highest level of cAMP attained, basal 4.6 ± 0.2 not subtracted, 1h at room temperature
T2 construct: expressed in transfected cells; host or cells: COS-7 cells, transient transfection, vector pcDNA-1
T2 sequence (Q03431 27-593): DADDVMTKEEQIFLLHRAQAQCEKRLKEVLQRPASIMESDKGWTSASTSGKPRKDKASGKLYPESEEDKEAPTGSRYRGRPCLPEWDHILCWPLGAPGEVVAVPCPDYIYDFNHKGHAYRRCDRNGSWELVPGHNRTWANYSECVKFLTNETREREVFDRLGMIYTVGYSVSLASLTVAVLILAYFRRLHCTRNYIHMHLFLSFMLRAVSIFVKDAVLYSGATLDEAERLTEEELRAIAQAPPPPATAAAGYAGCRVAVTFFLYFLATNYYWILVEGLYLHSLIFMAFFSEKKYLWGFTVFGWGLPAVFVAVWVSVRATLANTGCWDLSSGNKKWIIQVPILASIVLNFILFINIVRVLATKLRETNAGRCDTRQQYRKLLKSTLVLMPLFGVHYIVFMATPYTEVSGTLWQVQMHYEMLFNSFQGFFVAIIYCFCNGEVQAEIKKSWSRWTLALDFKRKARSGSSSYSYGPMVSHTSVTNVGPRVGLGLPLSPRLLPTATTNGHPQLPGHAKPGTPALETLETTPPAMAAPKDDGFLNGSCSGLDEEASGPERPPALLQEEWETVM
Protocol: as §1, §2

PTH/PTHrP receptor [3] = biological target: T2, PTH/PTHrP receptor; experiment: Competition radioligand binding, COS-7 cells transfected with human PTH/PTHrP receptor; conditions: for Binding in words, PTH/PTHrP receptor: competition with radioligand; for Binding affinity, fold weaker than PTH-(1-34): PTH/PTHrP receptor
Protocol: as §1
(§3) Binding reactions were performed as described previously. Id. Each well (final volume: […]) contained 26 fmole of ^125I-[Nle^8,21,Tyr^34]rPTH(1-34)NH2 (100,000 CPM) and various amounts (0.4-300 pmole) of an unlabeled competitor ligand, both diluted in binding buffer (50 mM Tris-HCl, pH 7.7, 100 mM NaCl, 5 mM KCl, 2 mM CaCl, 5% heat-inactivated horse serum, 0.5% heat-inactivated fetal bovine serum). Incubations were at room temperature for 2 hours, except for experiments involving Scatchard analysis, which were performed at 4° C. for 6 hours. At the end of the binding reaction, the cells were rinsed 3 times with 0.5 ml of binding buffer, lysed with 0.5 ml of 5M NaOH, and the entire lysate was counted. Nonspecific binding of tracer (NSB), determined in wells containing 1 μM of [NleTyr^8,21,Tyr^34]rPTH-(1-34)NH2, was ˜1% of total counts added. Maximum specific binding (B0) was calculated as the total radioactivity bound to cells in the absence of unlabeled PTH ligand, minus NSB. […] For Scatchard analyses, homologous competition binding studies were performed that used ^125I-[-NleTyr^8,21,Tyr^34]rPTH-(1-34)NH2 (26 fmole/well) and varying amounts (1.2-300 pmol) of the same unlabeled ligand. Estimates of the number of receptors/cell derived from these studies assumed a single class of binding sites and a transfection efficiency of 20% (Abou-Samra, A. B. et al., Proc. Natl. Acad. Sci (USA) 89:2732-2736 (1992)).

PTH-2 receptor [4] = biological target: T1, PTH-2 receptor; experiment: Competition radioligand binding, COS-7 cells transfected with human PTH-2 receptor; conditions: for Binding in words, PTH-2 receptor: competition with radioligand
Protocol: as §1, §3

[5] = COS-7 cells, radioligand 125I-[Nle8,21,Y34]rPTH-(1-34)NH2, 2 hours at room temperature, mean ± s.e.m.

T1 sequence (P49190 25-550): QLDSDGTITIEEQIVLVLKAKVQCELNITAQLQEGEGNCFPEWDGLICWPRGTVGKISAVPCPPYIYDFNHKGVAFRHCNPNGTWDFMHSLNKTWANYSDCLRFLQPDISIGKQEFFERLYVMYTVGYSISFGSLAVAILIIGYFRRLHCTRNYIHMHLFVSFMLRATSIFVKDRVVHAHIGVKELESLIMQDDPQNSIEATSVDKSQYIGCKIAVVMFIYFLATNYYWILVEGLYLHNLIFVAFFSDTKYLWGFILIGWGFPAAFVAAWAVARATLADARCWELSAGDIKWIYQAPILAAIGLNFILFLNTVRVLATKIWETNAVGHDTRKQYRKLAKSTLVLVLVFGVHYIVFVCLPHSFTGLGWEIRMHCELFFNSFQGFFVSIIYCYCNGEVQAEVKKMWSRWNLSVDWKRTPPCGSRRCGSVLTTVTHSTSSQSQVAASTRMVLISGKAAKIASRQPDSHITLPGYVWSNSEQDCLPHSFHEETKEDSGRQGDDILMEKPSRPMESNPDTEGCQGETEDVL

Substance	cAMP accumulation Maximum, PTH-2 receptor (PTH-2 receptor [1])	cAMP accumulation Maximum, PTH/PTHrP receptor (PTH/PTHrP receptor [2])	cAMP agonist activity in words, PTH-2 receptor (PTH-2 receptor [1])	further results
[H5, Y34]hPTH-(1-34)NH2	10 ± 1 pmoles/well	116 ± 19 pmoles/well		cAMP agonist activity in words, PTH/PTHrP receptor (PTH/PTHrP receptor [2]): efficiently stimulated cAMP formation; Binding in words, PTH/PTHrP receptor (PTH/PTHrP receptor [3]; COS-7 cells): competed very poorly
[Tyr^36]hPTHrP-(1-36)NH2 [[Y36]hPTHrP-(1-36)NH2, reference compound]	11 ± 1 pmoles/well		nearly inactive	Binding potency, fold weaker than PTH-(1-34) (PTH-2 receptor [4]; PTH-2 receptor): more than 100 fold; Binding in words, PTH-2 receptor (PTH-2 receptor [4]; COS-7 cells): bound poorly; cAMP agonist activity in words, PTH/PTHrP receptor (PTH/PTHrP receptor [2]): full and potent agonists; Binding affinity, fold weaker than PTH-(1-34) (PTH/PTHrP receptor [3]): six-fold weaker binding; Binding in words, PTH/PTHrP receptor (PTH/PTHrP receptor [3]; COS-7 cells): fully inhibited binding of the radioligand
[Ile^5]PTHrP-(1-36) [[15, Y36]hPTHrP-(1-36)NH2]	80 ± 5 pmoles/well		full agonist	cAMP EC50, fold higher than that of PTH-(1-34) (PTH-2 receptor [1]; PTH-2 receptor): 12 fold
hpTHrP-(1-14)/[Y34]hPTH-(15-34)NH2 [Hybrid-1]	5.3 ± 0.6 pmoles/well	140 ± 17 pmoles/well	weak activity	
[Y36]hPTHrP-(15-36)NH2				Binding in words, PTH-2 receptor (PTH-2 receptor [4]; COS-7 cells): competed weakly
hPTH-(1-14)/[Y34]hPTHrP-(15-34)NH2 [Hybrid-2]		123 ± 28 pmoles/well		
LNSMERVEFLRKKLQDVHNY-NH2 [[F23, Y34]hPTH-(15-34)NH2]				IC50 (PTH-2 receptor [4]; [5]): > 10 µM; IC50 (PTH/PTHrP receptor [3]; [5]): > 10 µM
[H5, F23, Y34]hPTH-(1-34)NH2	7.1 ± 0.9 pmoles/well	110 ± 19 pmoles/well		
[F23, Y34]hPTH-(1-34)NH2	50 ± 8 pmoles/well	104 ± 16 pmoles/well	nearly a full agonist	Reduction in binding potency compared to unsubstituted PTH-(1-34) (PTH-2 receptor [4]; PTH-2 receptor): 28 fold; Binding affinity, fold weaker than PTH-(1-34) (PTH/PTHrP receptor [3]): 2-3 fold
hpTHrP-(1-18)/[Y34]hpTH-(19-34)NH2 [Hybrid-5]	6.2 ± 0.4 pmoles/well	133 ± 14 pmoles/well		
[Ile^5, Trp^23]PTHrP-(1-36) [[15, W23, Y36]hPTHrP-(1-36)NH2]	65 ± 7 pmoles/well	109 ± 10 pmoles/well	as potent and efficacious as PTH-(1-34)	
hPTHrP-(1-21)/[Y34]hPTH-(22-34)NH2 [Hybrid-4]	6.7 ± 0.6 pmoles/well	107 ± 17 pmoles/well		
